Laboratory results taken from patent US11173192B2 (priority 2016, dated 2021).

Assays:
PR8 = type: cell-based, PR8 influenza A virus
[1] = tested on: PR8-infected RAW264.7 cells; type: cell-based; conditions: RAW264.7 cells stably overexpressing EPRS vs empty vector

With “EPRS: glutamyl-prolyl-tRNA synthetase protein, 1512 aa, SEQ ID NO: 63; expressed from plasmid or purified” the “viral replication following infection with PR8” value (PR8) was “significantly less viral replication”, the “IFN-β production following infection with PR8” value [1] was “more production of IFN-β and IL-6” and the “IL-6 production following infection with PR8” value [1] was “more production of IFN-β and IL-6”.
